From paper PMC4574608, “Genomic profiling of a Hepatocyte growth factor-dependent signature for MET-targeted therapy in glioblastoma” (Journal of Translational Medicine, 2015)
Entries after “also recorded” stand apart in the source; their conditions may differ.

Tests used:
U87MG cells = test: 3D cell invasion assay (spheroid dispersal on Matrigel); type: cell-based, human; settings: at 50 μM, day 3
Description: U87MG cells were first grown in 1 % soft agar (Sigma) for 7 days to form spheroids. Each spheroid was then selected and placed onto Matrigel in a well to attach overnight (day 0), followed by treatment with DMSO or serially diluted compounds. Images were taken after an additional 3 days under a light microscope. Triplicates were tested for each concentration.

KCI-10-40X1 tumors = test: EGFRamp PDX therapeutic efficacy; type: in vivo, mouse
Description: (§1) All animal studies were approved by the IACUC of Van Andel Research Institute. Subcutaneous and orthotopic tumor initiation were performed as previously described. The orthotopic tumor growth was measured by bioluminescence signal intensity (BLI) using a small animal optical imager AMI 1000 (Spectral Instruments Imaging, LLC). Dosing with V-4084 and/or erlotinib was delivered once daily by oral gavage for 3 weeks. Vehicles used were 0.5 % MC 400 with 0.05 % Tween 80 (for V-4084) and with 0.5 % (w/v) methyl cellulose (for erlotinib). To determine the effectiveness of treatment, the average tumor size of each group from the last measurement was analyzed with Student’s t test (p < 0.05).
(§2) To induce acquired resistance, KCI-10-40X1cells were inoculated into nude mice subcutaneously followed by continuous erlotinib treatment (75–100 mg/kg). […] The same transplant procedure was serially repeated four times to establish the tumor model adaptive to erlotinib treatment (KCI-10-40X1/erl). […] A combination of V-4084 and erlotinib, however, retarded KCI-10-40X1/erl tumor growth (Fig. 5E).

KCI-10-40X1/erl tumors = test: Erlotinib-resistant EGFRamp PDX therapeutic efficacy; type: in vivo, mouse; settings: continued erlotinib treatment, discontinuing accelerated growth
Description: as §1, §2

G116 PDX model = test: GBM PDX therapeutic efficacy; type: in vivo, mouse; settings: G116, highest HGF expression, single agent
Description: as §1

G91 PDX model = test: GBM PDX therapeutic efficacy; type: in vivo, mouse; settings: G91, no HGF expression, single agent
Description: as §1

Compound	U87MG cell dispersal (anti-migratory activity) (U87MG cells)	Time of continuous treatment until tumors regrow (start of acquired resistance) (KCI-10-40X1 tumors; KCI-10-40X1, continuous erlotinib 75–100 mg/kg) [weeks]	Tumor response to treatment (KCI-10-40X1 tumors; KCI-10-40X1 subcutaneous in nude mice, erlotinib 75 mg/kg, first week)	Tumor growth (KCI-10-40X1/erl tumors)	PDX tumor response to treatment (G116 PDX model)	PDX tumor response to treatment (G91 PDX model)
Cn1nnc2c(C(N)=O)ncn2c1=O [TMZ, Temozolomide]	failed to show any anti-migratory activity					
C#Cc1cccc(Nc2ncnc3cc(OCCOC)c(OCCOC)cc23)c1 [erlotinib]		5	high sensitivity; also recorded: significant tumor regression	grow while on erlotinib treatment	no effect	exactly the opposite
